This is an account of results in patent US8198307B2, “Imidazole derivatives having aryl piperidine substituent, method for preparation thereof and pharmaceutical compositions containing same” (Korea Research Institute of Chemical Technology, priority 2007, dated 2012).

In this test the target is T1, MCH R1 (melanine-concentrating hormone receptor-1) (Homo sapiens, UniProt Q99705).
T1 construct: purchased Euroscreen, Gosselies, Belgium
As to the kind of experiment: Inhibitory effects on MCH R1 binding (Eu-MCH time-resolved fluorescence binding assay). The following applies: concentration inhibiting the binding of MCH (Eu-MCH, 2 nM) to MCH R1 by 50% in vitro; TRF readout; test range 1 nM to 10 μM; read-out: IC50. As for the experimental part: First, MCH R1 (melanine-concentrating hormone receptor-1; Euroscreen, Gosselies, Belgium), 1 μM Europium-labeled melanine-concentrating hormone (Eu-MCH, PerkinElmer, Turku, Finland) and 1 mM melanine-concentrating hormone (MCH, #070-47, Phoenix, Belmont Calif., USA) were kept at 4° C. for ready use. 1 μM Eu-MCH and 1 mM MCH were diluted with an experimental solution (25 mM HEPES pH 7.4, 5 mM MgCl2, 1 mM CaCl2 and 0.5% (w/w) BSA) to 8 nM (final reaction concentration: 2 nM) and 2 μM (final reaction concentration: 0.5 μM), respectively. The compounds prepared in the Examples (“Test compounds”) were dissolved in the experimental solution in concentration of 4 nM to 40 μM (final reaction concentration: 1 nM to 10 μM). MCH R1 (200 assays/vial) was homogeneously dispersed in the experimental solution.
Then, 100 μl/well of the following reaction mixture was added to the wells of a microplate (Multiwell 96 well filter plates PN5020, Pall Co., Ann Arbor, Mich., USA) equipped with a filter paper, with an 8-channel pipette (multi 8-channel, Eppendorf, Hamburg, Germany). Specifically, to the wells of a non-specific binding control group, 25 μl of Eu-MCH, 50 μl of MCH R1 and 25 μl of MCH were added. Further, 25 μl of the experimental solution supplemented with 10% (w/w) of DMSO, 25 μl of Eu-MCH and 50 μl of MCH R1 were added to the wells of a total binding control group, while 25 μl of the test compounds, 25 μl Eu-MCH and 50 μl of MCH R1 were added to the wells of an experimental group. Subsequently, the microplate was shaken gently for 15 seconds and kept at room temperature for 90 minutes to allow the reaction to take place. Then, the plate was washed with a microplate washer (EMBLA, Molecular Devices) by washing three times with 300 μl of a washing solution (25 mM HEPES pH 7.4, 5 mM MgCl2, 1 mM CaCl2) to remove the residual unreacted Eu-MCH. Moisture was removed from the bottom of the wells and 150 μl of dissociation solution (DELFIA Enhancement solution, PerkinElmer, Turku, Finland) was added to each well, followed by keeping the plate at room temperature for 2 to 4 hours. Subsequently, time-resolved fluorescence (TRF) values were measured with a multilabel counter (Victor2, PerkinElmer, Turku, Finland) (emission wave length: 615 nm, excitation wave length: 340 nm). The inhibition rate based on the time-resolved fluorescence data was calculated using the following Equation (I). Inhibition rate of time-resolved fluorescence (%)=[(Average TRF value of the total binding group−Time-resolved fluorescence value of the test compound)/(Average TRF value of the total binding group−Average TRF value of the non-specific binding group)]×100 (I)

pIC50: −log10 of the molar value. Some results are limits rather than exact numbers.

T1 sequence (Q99705 whole entry, species assumed): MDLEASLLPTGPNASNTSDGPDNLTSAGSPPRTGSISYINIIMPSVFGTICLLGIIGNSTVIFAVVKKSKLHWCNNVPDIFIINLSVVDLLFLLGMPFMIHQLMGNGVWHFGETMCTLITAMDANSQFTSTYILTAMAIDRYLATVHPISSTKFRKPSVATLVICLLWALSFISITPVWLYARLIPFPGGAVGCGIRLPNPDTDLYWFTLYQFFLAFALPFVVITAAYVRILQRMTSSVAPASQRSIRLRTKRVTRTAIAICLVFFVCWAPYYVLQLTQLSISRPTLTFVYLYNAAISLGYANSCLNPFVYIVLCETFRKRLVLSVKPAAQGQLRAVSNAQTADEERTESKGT

Take `CC(=O)Nc1cccc(C2CCN(CCn3c(-c4ccccc4)nc4ccccc43)CC2)c1` [Example 1, 2-phenyl-1-{2-[4-(3-acetylaminophenyl)piperidin-1-yl]ethyl}-1H-benzimidazole]: the negative-log IC50 (pIC50) is under 5.00.

In the case of `CC(=O)Nc1cccc(C2CCN(CCn3c(-c4ccc(Cl)cc4)nc4ccccc43)CC2)c1` [Example 2, 2-(4-chlorophenyl)-1-{2-[4-(3-acetylaminophenyl)piperidin-1-yl]ethyl}-1H-benzimidazole], the pIC50 was 5.22.

Turning to `CC(=O)Nc1cccc(C2CCN(CCCn3c(-c4ccccc4)nc4ccccc43)CC2)c1` [Example 3, 2-phenyl-1-{3-[4-(3-acetylaminophenyl)piperidin-1-yl]propyl}-1H-benzimidazole], the pIC50 was 8.70. As for `CC(=O)Nc1cccc(C2CCN(CCCn3c(-c4ccc(Cl)cc4)nc4ccccc43)CC2)c1` [Example 4, 2-(4-chlorophenyl)-1-{3-[4-(3-acetylaminophenyl)piperidin-1-yl]propyl}-1H-benzimidazole], the figure is 9.00. As for `CC(=O)Nc1cccc(C2CCN(CCCCn3c(-c4ccccc4)nc4ccccc43)CC2)c1` [Example 5, 2-phenyl-1-{4-[4-(3-acetylaminophenyl)piperidin-1-yl]butyl}-1H-benzimidazole], the figure is 7.54; as for `CC(=O)Nc1cccc(C2CCN(CCCCn3c(-c4ccc(Cl)cc4)nc4ccccc43)CC2)c1` [Example 6, 2-(4-chlorophenyl)-1-{4-[4-(3-acetylaminophenyl)piperidin-1-yl]butyl}-1H-benzimidazole], 9.00; as for `CC(=O)Nc1cccc(C2CCN(CCCCCn3c(-c4ccccc4)nc4ccccc43)CC2)c1` [Example 7, 2-phenyl-1-{5-[4-(3-acetylaminophenyl)piperidin-1-yl]pentyl}-1H-benzimidazole], 7.13.

Take `CC(=O)Nc1cccc(C2CCN(CCCCCn3c(-c4ccc(Cl)cc4)nc4ccccc43)CC2)c1` [Example 8, 2-(4-chlorophenyl)-1-{5-[4-(3-acetylaminophenyl)piperidin-1-yl]pentyl}-1H-benzimidazole]: the pIC50 is 7.49. Next, `CC(=O)Nc1cccc(C2CCN(CCCn3c(-c4ccccc4Cl)nc4ccccc43)CC2)c1` [Example 9, 2-(2-chlorophenyl)-1-{3-[4-(3-acetylaminophenyl)piperidin-1-yl]propyl}-1H-benzimidazole]: 8.00; `CC(=O)Nc1cccc(C2CCN(CCCn3c(-c4cccc(Cl)c4)nc4ccccc43)CC2)c1` [Example 10, 2-(3-chlorophenyl)-1-{3-[4-(3-acetylaminophenyl)piperidin-1-yl]propyl}-1H-benzimidazole]: 8.30. For the compound `CC(=O)Nc1cccc(C2CCN(CCCn3c(-c4ccc(Br)cc4)nc4ccccc43)CC2)c1` [Example 11, 2-(4-bromophenyl)-1-{3-[4-(3-acetylaminophenyl)piperidin-1-yl]propyl}-1H-benzimidazole], the pIC50 is 8.30.

With `CC(=O)Nc1cccc(C2CCN(CCCn3c(-c4ccc(Cl)c(Cl)c4)nc4ccccc43)CC2)c1` [Example 12, 2-(3,4-dichlorophenyl)-1-{3-[4-(3-acetylaminophenyl)piperidin-1-yl]propyl}-1H-benzimidazole], the negative-log IC50 (pIC50) is 7.62.

For `CC(=O)Nc1cccc(C2CCN(CCCn3c(-c4cccc(Br)c4)nc4ccccc43)CC2)c1` [Example 13, 2-(3-bromophenyl)-1-{3-[4-(3-acetylaminophenyl)piperidin-1-yl]propyl}-1H-benzimidazole], the pIC50 was 9.00. As for `CC(=O)Nc1cccc(C2CCN(CCCn3c(-c4ccccc4I)nc4ccccc43)CC2)c1` [Example 14, 2-(2-iodophenyl)-1-{3-[4-(3-acetylaminophenyl)piperidin-1-yl]propyl}-1H-benzimidazole], the figure is under 5.00; as for `CC(=O)Nc1cccc(C2CCN(CCCn3c(-c4ccccc4F)nc4ccccc43)CC2)c1` [Example 15, 2-(2-fluorophenyl)-1-{3-[4-(3-acetylaminophenyl)piperidin-1-yl]propyl}-1H-benzimidazole], 8.00; as for `CC(=O)Nc1cccc(C2CCN(CCCn3c(-c4ccc(Cl)cc4Cl)nc4ccccc43)CC2)c1` [Example 16, 2-(2,4-dichlorophenyl)-1-{3-[4-(3-acetylaminophenyl)piperidin-1-yl]propyl}-1H-benzimidazole], 8.52. As for `COc1ccccc1-c1nc2ccccc2n1CCCN1CCC(c2cccc(NC(C)=O)c2)CC1` [Example 17, 2-(2-methoxyphenyl)-1-{3-[4-(3-acetylaminophenyl)piperidin-1-yl]propyl}-1H-benzimidazole], the figure is 6.13.

Take `COc1cccc(-c2nc3ccccc3n2CCCN2CCC(c3cccc(NC(C)=O)c3)CC2)c1` [Example 18, 2-(3-methoxyphenyl)-1-{3-[4-(3-acetylaminophenyl)piperidin-1-yl]propyl}-1H-benzimidazole]: the negative-log IC50 (pIC50) is 8.15. For `COc1ccc(-c2nc3ccccc3n2CCCN2CCC(c3cccc(NC(C)=O)c3)CC2)cc1` [Example 19, 2-(4-methoxyphenyl)-1-{3-[4-(3-acetylaminophenyl)piperidin-1-yl]propyl}-1H-benzimidazole], the negative logarithm of the IC50 (pIC50) is 8.05. As for `CC(=O)Nc1cccc(C2CCN(CCCn3c(-c4ccc(C(C)C)cc4)nc4ccccc43)CC2)c1` [Example 20, 2-(4-isopropylphenyl)-1-{3-[4-(3-acetylaminophenyl)piperidin-1-yl]propyl}-1H-benzimidazole], the figure is 7.72; as for `CC(=O)Nc1cccc(C2CCN(CCCn3c(-c4ccccc4)nc4cc(C)c(C)cc43)CC2)c1` [Example 21, 2-phenyl-1-{3-[4-(3-acetylaminophenyl)piperidin-1-yl]propyl}-5,6-dimethyl-1H-benzimidazole], 8.30; as for `CC(=O)Nc1cccc(C2CCN(CCCn3c(-c4ccc(Cl)cc4)nc4cc(C)c(C)cc43)CC2)c1` [Example 22, 2-(4-chlorophenyl)-1-{3-[4-(3-acetylaminophenyl)piperidin-1-yl]propyl}-5,6-dimethyl-1H-benzimidazole], 6.70.

`CC(=O)Nc1cccc(C2CCN(CCCn3c(-c4ccccc4)nc4ccc(C)cc43)CC2)c1` [Example 23, 2-phenyl-1-{3-[4-(3-acetylaminophenyl)piperidin-1-yl]propyl}-6-methyl-1H-benzimidazole]: the negative logarithm of the IC50 (pIC50) is 7.80. As for `CC(=O)Nc1cccc(C2CCN(CCCn3c(-c4ccc(Cl)cc4)nc4ccc(C)cc43)CC2)c1` [Example 24, 2-(4-chlorophenyl)-1-{3-[4-(3-acetylaminophenyl)piperidin-1-yl]propyl}-6-methyl-1H-benzimidazole], the figure is 8.00; as for `CC(=O)Nc1cccc(C2CCN(CCCn3c(-c4ccc(Cl)cc4)nc4ccc(Cl)cc43)CC2)c1` [Example 25, 2-(4-chlorophenyl)-1-{3-[4-(3-acetylaminophenyl)piperidin-1-yl]propyl}-6-chloro-1H-benzimidazole], 7.89; as for `CC(=O)Nc1cccc(C2CCN(CCCn3c(-c4ccccc4)nc4ccc(F)cc43)CC2)c1` [Example 26, 2-phenyl-1-{3-[4-(3-acetylaminophenyl)piperidin-1-yl]propyl}-6-fluoro-1H-benzimidazole], 8.15. Next, `COc1ccc2nc(-c3ccccc3)n(CCCN3CCC(c4cccc(NC(C)=O)c4)CC3)c2c1` [Example 27, 2-phenyl-1-{3-[4-(3-acetylaminophenyl)piperidin-1-yl]propyl}-6-methoxy-1H-benzimidazole]: 7.96.

On to `COc1ccc2nc(-c3ccc(Cl)cc3)n(CCCN3CCC(c4cccc(NC(C)=O)c4)CC3)c2c1` [Example 28, 2-(4-chlorophenyl)-1-{3-[4-(3-acetylaminophenyl)piperidin-1-yl]propyl}-6-methoxy-1H-benzimidazole], for which the pIC50 was 7.26. Next, `CC(=O)Nc1cccc(C2CCN(CCCn3c(-c4ccccc4)nc4ccc(Cl)cc43)CC2)c1` [Example 29, 2-phenyl-1-{3-[4-(3-acetylaminophenyl)piperidin-1-yl]propyl}-6-chloro-1H-benzimidazole]: 8.00.

In general, pIC50 refers to the negative decadic logarithm of the IC50, by convention in mol/L.
